The source of these data is patent US11155514B1, “Pleuromulin acitretin ester with antibacterial activity and a method of preparing the same” (SHAANXI UNIVERSITY OF SCIENCE AND TECHNOLOGY, priority 2020, dated 2021).

Converted amounts (≈) assume the structure as drawn. Like-named read-outs stand apart in the source and are kept apart here.

What all share (format): cell-based
The test system of assay [1] is methicillin-resistant Staphylococcus aureus MRSA 18-575. The experiment in a line: MIC by microbroth dilution, MRSA 18-575. The procedure:
(§1) The minimal inhibitory concentration (MIC) of the compounds was determined by a microbroth dilution method with gentamicin, cefazolin sodium and ceftriaxone sodium as positive controls.
(§2) The experimental strains included methicillin-resistant Gram-positive bacteria: methicillin-resistant Staphylococcus aureus MRSA 18-222, 18-575; multiple drug-resistant Gram-negative bacteria: […], multidrug-resistant Pseudomonas aeruginosa MDR-PA 18-174,18-202, carbapenem-resistant Acinetobacter baumannii CR-AB 18-183,18-560. All the experimental strains were donated by Huashan Hospital affiliated to Fudan University (Institute of antibiotics, Fudan University) and used after routine identification.
(§3) Preparation of Test Strains:
(§4) Preparation of MHB medium: 20.0 g MHB medium was added to 1 L distilled water, boiled until completely dissolved, packed in conical bottles and sterilized at 121° C. for 15 min.
(§5) The experimental strain was cultured to the logarithmic growth phase: under aseptic condition, the experimental strain was inoculated into 100 mL MHB medium and incubated in a constant temperature and humidity incubator at 37° C. for 20-22 hours.
(§6) Preparation of storage solution: weigh the sample to be tested, dissolve it with 1% DMSO solution, prepare a storage solution with a concentration of 2560 μg/mL, weigh a positive reference substance, dissolve it with aseptic distilled water, and configure a storage solution with a concentration of 2560 μg/mL.
(§7) Preparation of bacterial suspension: under aseptic condition, the experimental strains cultured to logarithmic growth phase were adjusted to 0.5 MCF turbidity standard with MHB medium and diluted according to 1:10, and the bacterial suspension with concentration of 10^6 CFU/mL was prepared for standby.
(§8) Stock solution dilution and inoculation of experimental strains: under aseptic conditions, dilute the stock solution to a solution of 256 μg/mL. Take a sterile 96-well plate, add 100 μL of MHB medium to each well except for the first and second wells; add 100 μL of positive control solution to the first well, and add 100 μL of compound sample solution to the second and third wells; Mix the sample solution in the 3 wells with the medium, and then pipet 100 μL to the 4th well, and then pipet 100 μL to the 5th well after mixing, and then dilute to the 9th well in a series of times, and draw 100 μL from the 9th well and discard, the 10th well is a growth control without drugs; then, add 100 μL of the above-prepared bacterial suspension to each well to make the final bacterial concentration of each well 5×10^5 CFU/mL; so far, the positive control concentration is 128 μg/mL, the concentration of the sample solution is 128, 64, 32, 16, 8, 4, 2, 1 μg/mL.
(§9) Incubation: Cover the 96-well plate inoculated with the experimental strains, and incubate in a constant temperature and humidity box at 37° C. for 20-22 hours.
(§10) In FIGS. 1-2, the ten wells represent ten groups, from left to right, positive, 128 μg/mL, 64 μg/mL, 32 μg/mL, 16 μg/mL, 8 μg/mL, 4 μg/mL, 2 μg/mL, 1 μg/mL, Negative.

Assay [2] deals with vancomycin-resistant enterococci VRE 18-94. The experiment in a line: MIC by microbroth dilution, VRE 18-94. As to conditions: for MIC: Enterococcus, read-out: Minimum bacteriostatic concentration (MIC). The procedure: as §1, §2, §3, §4, §5, §6, §7, §8, §9
In assay [3] the test system is multidrug-resistant Pseudomonas aeruginosa MDR-PA 18-174. The experiment in a line: MIC by microbroth dilution, MDR-PA 18-174. The settings on record: for MIC: Pseudomonas aeruginosa, read-out: Minimum bacteriostatic concentration (MIC). The procedure:
as §1, §2, §3, §4, §5, §6, §7, §8, §9

The next assay concerns drug-resistant bacteria. The experiment in a line: Antibacterial activity test, summary over all experimental strains. As to conditions: text summary of FIG. 1-2 and Table 1. The procedure: as §1, §2, §3, §4
The experimental strain was cultured to the logarithmic growth phase: under aseptic condition, the experimental strain was inoculated into 100 mL MHB medium and incubated in a constant temperature and humidity incubator at 37° C. for 20-22 hours. […]

Assay [4] concerns carbapenem-resistant Acinetobacter baumannii CR-AB 18-560. The experiment in a line: MIC by microbroth dilution, CR-AB 18-560. The settings on record: for MIC: Acinetobacter baumannii, read-out: Minimum bacteriostatic concentration (MIC). The procedure:
as §1, §2, §3, §4, §5, §6, §7, §8, §9

The test system of assay [5] is vancomycin-resistant enterococci VRE 18-80. The experiment in a line: MIC by microbroth dilution, VRE 18-80. As to conditions: for MIC: Enterococcus, read-out: Minimum bacteriostatic concentration (MIC). The procedure: as §1, §2, §3, §4, §5, §6, §7, §8, §9
The test system of assay [6] is multidrug-resistant Pseudomonas aeruginosa MDR-PA 18-202. In words: MIC by microbroth dilution, MDR-PA 18-202. On the procedure: as §1, §2, §3, §4, §5, §6, §7, §8, §9, §10
The subject of assay [7] is carbapenem-resistant Acinetobacter baumannii CR-AB 18-183. The experiment in a line: MIC by microbroth dilution, CR-AB 18-183. As to conditions: for MIC: Acinetobacter baumannii, read-out: Minimum bacteriostatic concentration (MIC). The procedure:
as §1, §2, §3, §4, §5, §6, §7, §8, §9

Assay [8] relates to methicillin-resistant Staphylococcus aureus MRSA 18-222. In words: MIC by microbroth dilution, MRSA 18-222. As to conditions: for MIC: Staphylococcus aureus, read-out: Minimum bacteriostatic concentration (MIC). The procedure:
as §1, §2, §3, §4, §5, §6, §7, §8, §9

The mark [9] stands for this setting: Staphylococcus aureus, strain MRSA 18-575, 37° C., 20-22 hours, read-out: Minimum bacteriostatic concentration (MIC).
Where [10] appears, read: strain VRE 18-94, 37° C., 20-22 hours.
[11] abbreviates: strain MDR-PA 18-174, 37° C., 20-22 hours.
Setting [12] is: strain CR-AB 18-560, 37° C., 20-22 hours.
The mark [13] stands for this setting: strain VRE 18-80, 37° C., 20-22 hours.
Where [14] appears, read: Pseudomonas aeruginosa, strain MDR-PA 18-202, 37° C., 20-22 hours, read-out: Minimum bacteriostatic concentration (MIC).
Where [15] appears, read: strain CR-AB 18-183, 37° C., 20-22 hours.
The mark [16] stands for this setting: strain MRSA 18-222, 37° C., 20-22 hours.

As to `COc1cc(C)c(/C=C/C(C)=C/C=C/C(C)=C/C(=O)O)c(C)c1C` [Acitretin], the MIC was over 128 µg/mL in assay [1] (Staphylococcus aureus, MRSA, read-out: Minimum bacteriostatic concentration (MIC)); over 128 µg/mL in assay [2] (VRE); over 128 µg/mL in assay [3]; over 128 µg/mL in assay [4]; over 128 µg/mL in [5] (VRE); over 128 µg/mL in assay [6] (Pseudomonas aeruginosa, read-out: Minimum bacteriostatic concentration (MIC)). Moreover, the MIC in assay [7] and in assay [8] (MRSA) was over 128 µg/mL in each case. Moreover, in the assay with drug-resistant bacteria, the “inhibitory effect on drug-resistant bacteria” value is recorded as “no inhibitory effect”.

As for `Cc1nnc(SCC2=C(C(=O)O)N3C(=O)[C@@H](NC(=O)Cn4cnnn4)[C@H]3SC2)s1` [Cefazolin sodium], the MIC in [1] (setting [9]) is over 128 µg/mL; in assay [2] (setting [10]), over 128 µg/mL; in assay [3] (setting [11]), 8 µg/mL; in assay [4] (setting [12]) it was over 128 µg/mL; in assay [5] (setting [13]) it was 32 µg/mL; in assay [6] (setting [14]) it was 128 µg/mL. The MIC in assay [7] (setting [15]) and in assay [8] (setting [16]) was over 128 µg/mL throughout.

Take `CO/N=C(\C(=O)N[C@@H]1C(=O)N2C(C(=O)O)=C(CSc3nc(=O)c(=O)[nH]n3C)CS[C@H]12)c1csc(N)n1` [Ceftriaxone sodium]: the MIC in assay [1] (setting [9]) is over 128 µg/mL; in [2] (setting [10]), over 128 µg/mL; in [3] (setting [11]) it was 128 µg/mL; in assay [4] (setting [12]), over 128 µg/mL; in assay [5] (setting [13]), 8 µg/mL; in assay [6] (setting [14]), 16 µg/mL. For the same molecule, the MIC in assay [7] (setting [15]) and in assay [8] (setting [16]) was over 128 µg/mL in each case.

In the case of `C=C[C@]1(C)C[C@@H](OC(=O)COC(=O)/C=C(C)/C=C/C=C(C)/C=C/c2c(C)cc(OC)c(C)c2C)[C@]2(C)CC[C@@H](C)C3(CCC(=O)[C@H]32)[C@@H](C)[C@@H]1O` [Pleuromulin acitretinester, (2E,4E,6E,8E)-2-(((4R,5S,6S,8R,9R,9aR,12R)-5-hydroxy-4,6,9,12-tetramethyl-1-oxo-6-vinyldecahydro-3a,9-propanocyclopenta[8]annulen-8-yl)oxy)-2-oxoethyl 9-(4-methoxy-2,3,6-trimethylphenyl)-3,7-dimethylnona-2,4,6,8-tetraenoate], the MIC in assay [1] (setting [9]) is 64 µg/mL (≈ 93.2 µM); in assay [1] (multi-drug resistant Staphylococcus aureus MRSA, strain not named, read-out: MIC) it was 64 µg/mL (≈ 93.2 µM); in [2] (setting [10]), over 128 µg/mL; in assay [3] (setting [11]) it was over 128 µg/mL; in assay [4] (setting [12]), over 128 µg/mL; in assay [5] (setting [13]) it was over 128 µg/mL. Also, the MIC in [6] (setting [14]) is 128 µg/mL (≈ 186 µM); in assay [6] (multi-drug resistant Pseudomonas aeruginosa MDR-PA, strain not named, read-out: MIC) it was 128 µg/mL (≈ 186 µM); in assay [7] (setting [15]) it was over 128 µg/mL; in assay [8] (setting [16]), over 128 µg/mL.

With `C=C[C@]1(C)C[C@@H](OC(=O)CO)[C@]2(C)[C@H](C)CC[C@]3(CCC(=O)[C@H]32)[C@@H](C)[C@@H]1O` [Pleuromulin], the MIC in [1] (setting [9]), in assay [2] (setting [10]), in assay [3] (setting [11]), in assay [4] (setting [12]), in assay [5] (setting [13]) and in assay [6] (setting [14]) was over 128 µg/mL each time. Besides, the MIC in [7] (setting [15]) and in assay [8] (setting [16]) was over 128 µg/mL in each case. The “inhibitory effect on drug-resistant bacteria” value with drug-resistant bacteria is “no inhibitory effect”.

For the molecule Gentamicin, the “Minimum bacteriostatic concentration (MIC)” value in assay [1] (strain MRSA 18-575, 37° C., 20-22 hours) was 2 µg/mL; in assay [2] (setting [10]), over 128 µg/mL; in [3] (setting [11]), 0.0625 µg/mL; in assay [4] (setting [12]), over 128 µg/mL; in [5] (setting [13]), 0.0625 µg/mL; in [6] (strain MDR-PA 18-202, 37° C., 20-22 hours), 0.0625 µg/mL. Also, the results for the “Minimum bacteriostatic concentration (MIC)” value in [7] (setting [15]) and in assay [8] (setting [16]) were over 128 µg/mL and 128 µg/mL, respectively.
